Measurements as given in ChEMBL document CHEMBL5505992, “Novel membrane-targeting isoxanthohumol-amine conjugates for combating methicillin-resistant Staphylococcus aureus (MRSA) infections” (Eur J Med Chem, 2024).
In brackets after ≈: the same amount, converted by molar mass.

How the values were obtained:
[1] = test system: Staphylococcus aureus; assay: Antibacterial activity against methicillin-resistant Staphylococcus aureus clinical isolate MRSA-14 measured after 16 to 18 hrs by CLSI method; type: functional; conditions: time 16-18 hrs
[2] = test system: Staphylococcus aureus; assay: Antibacterial activity against Staphylococcus aureus ATCC 29213 measured after 16 to 18 hrs by CLSI method; type: functional; conditions: time 16-18 hrs
[3] = test system: Staphylococcus aureus; assay: Antibacterial activity against methicillin-resistant Staphylococcus aureus clinical isolate MRSA-16 measured after 16 to 18 hrs by CLSI method; type: functional; conditions: time 16-18 hrs
[4] = test system: Staphylococcus aureus; assay: Antibacterial activity against methicillin-resistant Staphylococcus aureus clinical isolate MRSA-17 measured after 16 to 18 hrs by CLSI method; type: functional; conditions: time 16-18 hrs
[5] = test system: Escherichia coli; assay: Antibacterial activity against Escherichia coli ATCC25922 measured after 16 to 18 hrs by CLSI method; type: functional; conditions: time 16-18 hrs
[6] = test system: Staphylococcus aureus; assay: Antibacterial activity against methicillin-resistant Staphylococcus aureus clinical isolate MRSA-20 measured after 16 to 18 hrs by CLSI method; type: functional; conditions: time 16-18 hrs
[7] = test system: Staphylococcus aureus; assay: Antibacterial activity against methicillin-resistant Staphylococcus aureus clinical isolate MRSA-23 measured after 16 to 18 hrs by CLSI method; type: functional; conditions: time 16-18 hrs
[8] = test system: Staphylococcus aureus; assay: Antibacterial activity against methicillin-resistant Staphylococcus aureus clinical isolate MRSA-13 measured after 16 to 18 hrs by CLSI method; type: functional; conditions: time 16-18 hrs
[9] = Selectivity index, ratio of HC50 for hemolytic activity in sheep erythrocytes to MIC for antibacterial activity against Staphylococcus aureus ATCC 29213; type: toxicity, cell-based; conditions: read-out: Selectivity Index
[10] = test system: Staphylococcus aureus; assay: Antibacterial activity against methicillin-resistant Staphylococcus aureus clinical isolate MRSA-21 measured after 16 to 18 hrs by CLSI method; type: functional; conditions: time 16-18 hrs
[11] = test system: Staphylococcus aureus; assay: Antibacterial activity against methicillin-resistant Staphylococcus aureus clinical isolate MRSA-18 measured after 16 to 18 hrs by CLSI method; type: functional; conditions: time 16-18 hrs
[12] = test system: Staphylococcus aureus; assay: Antibacterial activity against methicillin-resistant Staphylococcus aureus clinical isolate MRSA-22 measured after 16 to 18 hrs by CLSI method; type: functional; conditions: time 16-18 hrs
[13] = test system: Staphylococcus aureus; assay: Antibacterial activity against methicillin-resistant Staphylococcus aureus clinical isolate MRSA-11 measured after 16 to 18 hrs by CLSI method; type: functional; conditions: time 16-18 hrs
[14] = Hemolytic activity in sheep erythrocytes incubated for 1 hr by absorbance based analysis; type: toxicity, cell-based, Ovis aries, Erythrocyte

Structure (SMILES) | MIC [1] [µg/mL] | MIC [2] [µg/mL] | MIC [3] [µg/mL] | MIC [4] [µg/mL] | MIC [5] [µg/mL] | MIC [6] [µg/mL] | MIC [7] [µg/mL] | MIC [8] [µg/mL] | selectivity ratio [9] | MIC [10] [µg/mL] | MIC [11] [µg/mL] | MIC [12] [µg/mL] | MIC [13] [µg/mL] | HC50 at 1 h [14] [µg/mL]
CCCCN(CCCC)CCCCCOc1ccc(C2CC(=O)c3c(OC)cc(OCCCCCN(CCCC)CCCC)c(CC=C(C)C)c3O2)cc1 (centres undefined) | 4 (≈ 5.34 µM) | 4 (≈ 5.34 µM) | 4 (≈ 5.34 µM) | 4 (≈ 5.34 µM) | > 128 | 4 (≈ 5.34 µM) | 8 (≈ 10.7 µM) | 4 (≈ 5.34 µM) | 245 | 8 (≈ 10.7 µM) | 8 (≈ 10.7 µM) | 8 (≈ 10.7 µM) | 8 (≈ 10.7 µM) | 980
COc1cc(OCCCCCN2CCCCC2C)c(CC=C(C)C)c2c1C(=O)CC(c1ccc(OCCCCCN3CCCCC3C)cc1)O2 (centres undefined) | 16 (≈ 23.2 µM) | 32 (≈ 46.4 µM) | 8 (≈ 11.6 µM) | 8 (≈ 11.6 µM) | > 128 | 16 (≈ 23.2 µM) | 16 (≈ 23.2 µM) | 16 (≈ 23.2 µM) | 9.1 | 8 (≈ 11.6 µM) | 16 (≈ 23.2 µM) | 16 (≈ 23.2 µM) | 16 (≈ 23.2 µM) | 292
COc1cc(OCCCCCN2CCSCC2)c(CC=C(C)C)c2c1C(=O)CC(c1ccc(OCCCCCN3CCSCC3)cc1)O2 (centres undefined) | > 128 | 32 (≈ 45.9 µM) | > 128 | > 128 | > 128 | > 128 | > 128 | > 128 | > 20 | > 128 | > 128 | > 128 | > 128 | > 640
COc1cc(OCCCN2CCOCC2)c(CC=C(C)C)c2c1C(=O)CC(c1ccc(OCCCN3CCOCC3)cc1)O2 (centres undefined) | > 128 | > 128 | > 128 | > 128 | > 128 | > 128 | > 128 | > 128 | – | > 128 | > 128 | > 128 | > 128 | > 1280
COc1cc(OCCCN2CCCCC2)c(CC=C(C)C)c2c1C(=O)CC(c1ccc(OCCCN3CCCCC3)cc1)O2 (centres undefined) | > 128 | 64 (≈ 106 µM) | 32 (≈ 52.9 µM) | > 128 | > 128 | > 128 | > 128 | > 128 | 7.3 | > 128 | > 128 | > 128 | > 128 | 467
